Assay results published in article doi:10.1101/2021.09.30.462449v1 (biorxiv, 2021).

Key:
Assay in all cases: biochemical
Conditions in all cases: read-out: % inhibition mean (Lanthascreen)
ACVR2B = ACVR2B (Homo sapiens, UniProt Q13705)
ADCK3 = ADCK3 (Homo sapiens, UniProt Q8NI60)
ALK F1174L = ALK F1174L (Homo sapiens, UniProt Q9UM73, F1174L)
ANKK1 = ANKK1 (Homo sapiens, UniProt Q8NFD2)
BRAF = BRAF (Homo sapiens, UniProt P15056)
CAMK2G (CaMKII gamma) = CAMK2G (CaMKII gamma) (Homo sapiens, UniProt Q13555)
CAMKK2 (CaMKK beta) = CAMKK2 (CaMKK beta) (Homo sapiens, UniProt Q96RR4)
CDK14 (PFTK1)/cyclin Y = CDK14 (PFTK1)/cyclin Y (Homo sapiens, UniProt O94921)
CDK16 (PCTK1)/cyclin Y = CDK16 (PCTK1)/cyclin Y (Homo sapiens, UniProt Q00536)
CDK2/cyclin E1 = CDK2/cyclin E1 (Homo sapiens, UniProt P24941)
DDR2 N456S = DDR2 N456S (Homo sapiens, UniProt Q16832, N456S)
DMPK = DMPK (Homo sapiens, UniProt Q09013)
GAK = GAK (Homo sapiens, UniProt O14976)
KIT A829P = KIT A829P (Homo sapiens, UniProt P10721, A829P)
KIT D816H = KIT D816H (Homo sapiens, UniProt P10721, D816H)
KIT V654A = KIT V654A (Homo sapiens, UniProt P10721, V654A)
LIMK2 = LIMK2 (Homo sapiens, UniProt P53671)
MAP2K6 (MKK6) = MAP2K6 (MKK6) (Homo sapiens, UniProt P52564)
MAP3K3 (MEKK3) = MAP3K3 (MEKK3) (Homo sapiens, UniProt Q99759)
MAPK8 (JNK1) = MAPK8 (JNK1) (Homo sapiens, UniProt P45983)
MASTL = MASTL (Homo sapiens, UniProt Q96GX5)
NLK = NLK (Homo sapiens, UniProt Q9UBE8)
PKN2 (PRK2) = PKN2 (PRK2) (Homo sapiens, UniProt Q16513)
RET G691S = RET G691S (Homo sapiens, UniProt P07949, G691S)
RET M918T = RET M918T (Homo sapiens, UniProt P07949, M918T)
SIK1 = SIK1 (Homo sapiens, UniProt P57059)
TGFBR1 (ALK5) = TGFBR1 (ALK5) (Homo sapiens, UniProt P36897)
WEE1 = WEE1 (Homo sapiens, UniProt P30291)

Chain of RET G691S (P07949 whole entry G691S): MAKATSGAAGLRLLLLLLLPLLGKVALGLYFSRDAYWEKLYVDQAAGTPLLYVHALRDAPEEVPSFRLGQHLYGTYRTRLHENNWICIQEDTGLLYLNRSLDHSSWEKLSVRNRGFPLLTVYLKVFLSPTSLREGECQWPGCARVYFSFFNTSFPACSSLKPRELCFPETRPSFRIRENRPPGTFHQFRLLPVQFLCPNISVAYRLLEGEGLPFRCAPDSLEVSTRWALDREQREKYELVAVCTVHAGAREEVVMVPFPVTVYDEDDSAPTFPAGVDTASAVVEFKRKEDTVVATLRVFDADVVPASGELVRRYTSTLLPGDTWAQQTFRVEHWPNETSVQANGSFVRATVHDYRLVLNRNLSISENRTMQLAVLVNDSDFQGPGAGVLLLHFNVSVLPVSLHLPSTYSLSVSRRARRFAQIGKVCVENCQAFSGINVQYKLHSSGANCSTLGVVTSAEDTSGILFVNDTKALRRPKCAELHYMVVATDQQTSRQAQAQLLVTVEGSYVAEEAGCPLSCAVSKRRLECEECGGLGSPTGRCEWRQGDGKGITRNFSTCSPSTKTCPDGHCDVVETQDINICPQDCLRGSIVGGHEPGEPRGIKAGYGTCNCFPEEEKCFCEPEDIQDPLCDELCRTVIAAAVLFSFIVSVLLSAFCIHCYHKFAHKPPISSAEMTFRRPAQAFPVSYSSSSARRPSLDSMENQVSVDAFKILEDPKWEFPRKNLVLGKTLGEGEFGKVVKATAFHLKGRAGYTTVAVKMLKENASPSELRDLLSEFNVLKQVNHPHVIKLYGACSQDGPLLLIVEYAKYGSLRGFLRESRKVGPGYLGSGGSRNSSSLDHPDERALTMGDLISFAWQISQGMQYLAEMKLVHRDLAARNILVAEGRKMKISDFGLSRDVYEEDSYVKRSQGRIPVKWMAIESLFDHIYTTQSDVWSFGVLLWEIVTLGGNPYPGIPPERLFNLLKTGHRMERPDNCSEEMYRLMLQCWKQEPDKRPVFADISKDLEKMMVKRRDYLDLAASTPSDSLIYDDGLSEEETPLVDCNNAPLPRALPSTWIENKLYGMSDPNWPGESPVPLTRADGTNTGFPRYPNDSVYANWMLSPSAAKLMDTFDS
Chain of KIT D816H (P10721 whole entry D816H): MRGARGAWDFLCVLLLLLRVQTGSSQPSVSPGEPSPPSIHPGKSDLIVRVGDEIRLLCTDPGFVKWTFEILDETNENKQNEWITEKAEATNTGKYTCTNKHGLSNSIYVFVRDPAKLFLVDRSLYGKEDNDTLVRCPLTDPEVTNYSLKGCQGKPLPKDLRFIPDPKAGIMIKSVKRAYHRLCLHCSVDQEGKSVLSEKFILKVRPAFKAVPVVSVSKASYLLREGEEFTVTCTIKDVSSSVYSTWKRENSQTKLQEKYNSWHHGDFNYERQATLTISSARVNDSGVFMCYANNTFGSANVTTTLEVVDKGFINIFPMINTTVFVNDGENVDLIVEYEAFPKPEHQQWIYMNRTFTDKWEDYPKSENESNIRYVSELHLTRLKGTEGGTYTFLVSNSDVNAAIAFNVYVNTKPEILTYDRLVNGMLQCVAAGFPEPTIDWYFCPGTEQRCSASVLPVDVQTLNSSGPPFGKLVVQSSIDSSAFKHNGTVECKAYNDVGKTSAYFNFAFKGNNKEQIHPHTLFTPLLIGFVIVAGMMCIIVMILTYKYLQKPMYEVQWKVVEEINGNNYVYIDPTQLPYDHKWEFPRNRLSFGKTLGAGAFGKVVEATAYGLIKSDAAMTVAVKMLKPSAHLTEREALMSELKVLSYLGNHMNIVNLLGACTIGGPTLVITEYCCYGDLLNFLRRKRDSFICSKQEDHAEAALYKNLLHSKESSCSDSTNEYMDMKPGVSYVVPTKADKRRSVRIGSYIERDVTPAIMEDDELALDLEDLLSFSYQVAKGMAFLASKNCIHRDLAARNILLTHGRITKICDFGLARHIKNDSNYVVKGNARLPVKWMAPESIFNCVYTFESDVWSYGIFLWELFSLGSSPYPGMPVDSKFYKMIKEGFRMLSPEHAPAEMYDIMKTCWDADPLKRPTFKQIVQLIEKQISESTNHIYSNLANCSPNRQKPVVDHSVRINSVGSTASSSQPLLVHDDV
Chain of MASTL (Q96GX5 whole entry): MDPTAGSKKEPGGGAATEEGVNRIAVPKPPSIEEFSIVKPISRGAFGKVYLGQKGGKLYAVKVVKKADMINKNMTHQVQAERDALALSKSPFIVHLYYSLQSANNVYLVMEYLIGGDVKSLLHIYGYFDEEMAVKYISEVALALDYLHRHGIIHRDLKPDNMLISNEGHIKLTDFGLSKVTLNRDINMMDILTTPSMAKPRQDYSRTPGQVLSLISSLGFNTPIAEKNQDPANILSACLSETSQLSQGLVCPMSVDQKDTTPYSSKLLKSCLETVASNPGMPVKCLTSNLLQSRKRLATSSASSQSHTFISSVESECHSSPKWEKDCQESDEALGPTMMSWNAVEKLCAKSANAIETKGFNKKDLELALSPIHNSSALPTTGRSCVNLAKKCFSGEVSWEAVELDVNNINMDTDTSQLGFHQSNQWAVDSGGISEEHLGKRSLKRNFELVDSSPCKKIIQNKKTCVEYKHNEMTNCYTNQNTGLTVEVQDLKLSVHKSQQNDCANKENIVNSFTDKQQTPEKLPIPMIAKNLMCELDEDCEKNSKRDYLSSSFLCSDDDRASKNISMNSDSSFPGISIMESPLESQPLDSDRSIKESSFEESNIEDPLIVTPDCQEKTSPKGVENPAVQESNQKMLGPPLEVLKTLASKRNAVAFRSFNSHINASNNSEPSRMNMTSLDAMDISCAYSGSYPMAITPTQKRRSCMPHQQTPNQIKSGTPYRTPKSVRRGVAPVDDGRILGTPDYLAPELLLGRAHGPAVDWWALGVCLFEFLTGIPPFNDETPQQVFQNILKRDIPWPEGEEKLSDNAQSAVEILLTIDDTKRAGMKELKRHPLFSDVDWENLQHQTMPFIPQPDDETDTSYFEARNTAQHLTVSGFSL
Chain of CDK14 (PFTK1)/cyclin Y (O94921 whole entry): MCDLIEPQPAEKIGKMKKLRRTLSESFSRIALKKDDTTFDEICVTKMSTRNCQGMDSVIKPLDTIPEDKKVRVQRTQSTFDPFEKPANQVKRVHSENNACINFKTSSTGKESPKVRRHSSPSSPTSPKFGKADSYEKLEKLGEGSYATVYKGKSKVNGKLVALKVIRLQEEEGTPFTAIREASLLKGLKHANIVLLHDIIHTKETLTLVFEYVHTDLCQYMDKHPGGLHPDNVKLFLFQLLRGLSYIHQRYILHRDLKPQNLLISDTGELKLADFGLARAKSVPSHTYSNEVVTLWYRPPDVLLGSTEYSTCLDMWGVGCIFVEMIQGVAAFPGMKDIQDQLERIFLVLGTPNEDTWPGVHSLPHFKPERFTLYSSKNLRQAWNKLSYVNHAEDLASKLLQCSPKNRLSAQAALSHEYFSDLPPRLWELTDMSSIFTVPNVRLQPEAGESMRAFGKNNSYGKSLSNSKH
Chain of CDK14 (PFTK1)/cyclin Y (Q8ND76 whole entry partner): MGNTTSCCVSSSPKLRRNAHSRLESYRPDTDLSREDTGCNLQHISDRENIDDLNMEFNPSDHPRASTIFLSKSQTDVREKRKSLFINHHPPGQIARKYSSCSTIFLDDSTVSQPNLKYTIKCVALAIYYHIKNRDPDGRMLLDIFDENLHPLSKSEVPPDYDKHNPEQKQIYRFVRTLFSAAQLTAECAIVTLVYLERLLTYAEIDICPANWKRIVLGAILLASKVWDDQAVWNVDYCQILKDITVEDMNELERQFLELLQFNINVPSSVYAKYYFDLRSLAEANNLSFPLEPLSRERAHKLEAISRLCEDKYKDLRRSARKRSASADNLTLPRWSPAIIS
Chain of ANKK1 (Q8NFD2 whole entry): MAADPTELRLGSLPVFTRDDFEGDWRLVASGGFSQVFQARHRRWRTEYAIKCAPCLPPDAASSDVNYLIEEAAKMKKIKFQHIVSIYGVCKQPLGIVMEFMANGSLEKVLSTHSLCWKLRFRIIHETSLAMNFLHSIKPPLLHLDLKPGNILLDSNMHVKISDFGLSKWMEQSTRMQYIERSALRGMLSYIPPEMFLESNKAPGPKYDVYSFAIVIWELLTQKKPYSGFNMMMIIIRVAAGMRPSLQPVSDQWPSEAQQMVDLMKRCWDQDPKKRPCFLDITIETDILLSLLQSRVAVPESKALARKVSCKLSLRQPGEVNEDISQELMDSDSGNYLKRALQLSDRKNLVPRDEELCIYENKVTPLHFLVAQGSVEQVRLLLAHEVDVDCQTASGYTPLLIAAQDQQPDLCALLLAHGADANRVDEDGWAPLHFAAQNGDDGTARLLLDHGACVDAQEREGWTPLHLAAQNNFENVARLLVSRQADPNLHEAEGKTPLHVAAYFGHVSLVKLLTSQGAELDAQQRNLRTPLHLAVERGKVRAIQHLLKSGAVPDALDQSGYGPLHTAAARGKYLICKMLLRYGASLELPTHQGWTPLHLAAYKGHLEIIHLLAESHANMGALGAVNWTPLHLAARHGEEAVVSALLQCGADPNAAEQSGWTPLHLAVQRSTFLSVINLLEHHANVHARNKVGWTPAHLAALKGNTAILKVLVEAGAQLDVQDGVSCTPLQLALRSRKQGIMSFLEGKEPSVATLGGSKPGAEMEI
Chain of KIT V654A (P10721 whole entry V654A): as the sequence (P10721 whole entry D816H) above, with V654A, H816D counted along it
Chain of MAP2K6 (MKK6) (P52564 whole entry): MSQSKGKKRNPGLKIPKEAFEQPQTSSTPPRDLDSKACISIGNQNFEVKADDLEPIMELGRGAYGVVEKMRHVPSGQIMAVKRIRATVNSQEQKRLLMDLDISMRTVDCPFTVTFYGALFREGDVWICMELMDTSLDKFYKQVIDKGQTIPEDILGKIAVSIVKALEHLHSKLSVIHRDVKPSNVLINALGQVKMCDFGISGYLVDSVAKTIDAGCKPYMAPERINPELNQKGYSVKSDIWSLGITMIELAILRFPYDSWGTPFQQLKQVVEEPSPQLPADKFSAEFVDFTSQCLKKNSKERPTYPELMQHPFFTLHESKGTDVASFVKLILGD
Chain of KIT A829P (P10721 whole entry A829P): as the sequence (P10721 whole entry D816H) above, with H816D, A829P counted along it
Chain of RET M918T (P07949 whole entry M918T): as the sequence (P07949 whole entry G691S) above, with S691G, M918T counted along it

Question: For `COc1ccc2nc3cc(Cl)ccc3c(Nc3cc(CN4CCCC4)c(O)c(CN4CCCC4)c3)c2n1` [Pyronaridine, 4-[(7-Chloro-2-methoxybenzo[b][1,5]naphthyridin-10-yl)amino]-2,6-bis(1-pyrrolidinylmethyl)phenol phosphate (1:4)], which inhibition at 1 µM (ACVR2B) is on record?
Answer: 8%

Question: And the inhibition at 1 µM (ADCK3)?
Answer: -16%

Question: And the inhibition at 1 µM (ALK F1174L)?
Answer: 8%

Question: What about the inhibition at 1 µM (ANKK1) of the same compound?
Answer: -2%

Question: What about the inhibition at 1 µM (BRAF) of the same compound?
Answer: -11%

Question: What about the inhibition at 1 µM (CAMK2G (CaMKII gamma)) of the same compound?
Answer: -1%

Question: And the inhibition at 1 µM (CAMKK2 (CaMKK beta))?
Answer: -1%

Question: What about the inhibition at 1 µM (CDK14 (PFTK1)/cyclin Y) of the same compound?
Answer: 14%

Question: What about the inhibition at 1 µM (CDK16 (PCTK1)/cyclin Y) of the same compound?
Answer: -12%

Question: And the inhibition at 1 µM (CDK2/cyclin E1)?
Answer: 0%

Question: And the inhibition at 1 µM (DDR2 N456S)?
Answer: 17%

Question: What about the inhibition at 1 µM (DMPK) of the same compound?
Answer: 4%

Question: And the inhibition at 1 µM (GAK)?
Answer: 28%

Question: And the inhibition at 1 µM (KIT A829P)?
Answer: -9%

Question: And the inhibition at 1 µM (KIT D816H)?
Answer: -7%

Question: What about the inhibition at 1 µM (KIT V654A) of the same compound?
Answer: 10%

Question: What about the inhibition at 1 µM (LIMK2) of the same compound?
Answer: -1%

Question: And the inhibition at 1 µM (MAP2K6 (MKK6))?
Answer: 9%

Question: What about the inhibition at 1 µM (MAP3K3 (MEKK3)) of the same compound?
Answer: -3%

Question: What about the inhibition at 1 µM (MAPK8 (JNK1)) of the same compound?
Answer: 3%

Question: And the inhibition at 1 µM (MASTL)?
Answer: 3%

Question: And the inhibition at 1 µM (NLK)?
Answer: 8%

Question: And the inhibition at 1 µM (PKN2 (PRK2))?
Answer: 6%

Question: What about the inhibition at 1 µM (RET G691S) of the same compound?
Answer: -3%

Question: And the inhibition at 1 µM (RET M918T)?
Answer: -3%

Question: And the inhibition at 1 µM (SIK1)?
Answer: 2%

Question: And the inhibition at 1 µM (TGFBR1 (ALK5))?
Answer: -4%

Question: And the inhibition at 1 µM (WEE1)?
Answer: 10%
